ChEMBL document CHEMBL5143617 (Eur J Med Chem, 2022)
Converted amounts (≈) assume the structure as drawn. The source made the active and inactive calls. No cut-off for these calls is given here.

How the values were obtained:
[1] = biological target: 5-hydroxytryptamine receptor 7 (Homo sapiens, UniProt P34969); assay: Displacement of [3H]-5-CT from human 5-HT7 receptor expressed in CHO-K1 cells membrane by scintillation counter analysis; type: cell membranes
[2] = biological target: T1, cAMP and cAMP-inhibited cGMP 3',5'-cyclic phosphodiesterase 10A (Homo sapiens, UniProt Q9Y233); assay: Inhibition of PDE10A (unknown origin) preincubated for 20 mins followed by substrate addition and measured after 1 hr by PEDlight AMP detection reagent based luminescence assay
T1 sequence (Q9Y233 whole entry): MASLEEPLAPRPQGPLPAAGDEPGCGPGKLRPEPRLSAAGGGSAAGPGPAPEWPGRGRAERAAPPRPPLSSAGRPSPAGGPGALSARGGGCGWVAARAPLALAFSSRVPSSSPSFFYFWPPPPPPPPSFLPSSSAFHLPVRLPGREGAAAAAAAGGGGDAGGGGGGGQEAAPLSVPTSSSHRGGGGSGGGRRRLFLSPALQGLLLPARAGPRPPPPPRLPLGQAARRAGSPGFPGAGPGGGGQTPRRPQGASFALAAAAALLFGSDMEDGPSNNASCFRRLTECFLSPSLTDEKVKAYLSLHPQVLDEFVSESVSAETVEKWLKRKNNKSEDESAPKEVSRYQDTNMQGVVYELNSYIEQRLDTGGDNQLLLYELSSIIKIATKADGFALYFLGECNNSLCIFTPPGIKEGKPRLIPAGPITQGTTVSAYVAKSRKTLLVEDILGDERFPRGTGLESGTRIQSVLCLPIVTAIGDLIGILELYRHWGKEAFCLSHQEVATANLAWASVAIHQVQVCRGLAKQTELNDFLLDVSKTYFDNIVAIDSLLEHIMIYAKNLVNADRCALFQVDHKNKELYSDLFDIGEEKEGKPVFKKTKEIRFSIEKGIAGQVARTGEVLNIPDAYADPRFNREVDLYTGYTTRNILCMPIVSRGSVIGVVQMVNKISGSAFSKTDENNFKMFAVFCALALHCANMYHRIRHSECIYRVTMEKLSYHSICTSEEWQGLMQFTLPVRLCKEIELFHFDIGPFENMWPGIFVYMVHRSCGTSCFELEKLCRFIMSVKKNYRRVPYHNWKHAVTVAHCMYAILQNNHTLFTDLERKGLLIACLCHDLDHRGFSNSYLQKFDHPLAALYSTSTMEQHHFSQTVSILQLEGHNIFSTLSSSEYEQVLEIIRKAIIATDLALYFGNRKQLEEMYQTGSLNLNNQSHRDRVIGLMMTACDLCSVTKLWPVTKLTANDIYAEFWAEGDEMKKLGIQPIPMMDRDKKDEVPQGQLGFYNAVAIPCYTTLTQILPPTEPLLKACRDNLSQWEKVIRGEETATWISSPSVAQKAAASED

[3] = biological target: T2, 5-hydroxytryptamine receptor 1A (Homo sapiens, UniProt P08908); assay: Displacement of [3H]-[…] from human 5-HT1A receptor expressed in CHO-K1 cells membrane by scintillation counter analysis; type: cell membranes
T2 sequence (P08908 whole entry): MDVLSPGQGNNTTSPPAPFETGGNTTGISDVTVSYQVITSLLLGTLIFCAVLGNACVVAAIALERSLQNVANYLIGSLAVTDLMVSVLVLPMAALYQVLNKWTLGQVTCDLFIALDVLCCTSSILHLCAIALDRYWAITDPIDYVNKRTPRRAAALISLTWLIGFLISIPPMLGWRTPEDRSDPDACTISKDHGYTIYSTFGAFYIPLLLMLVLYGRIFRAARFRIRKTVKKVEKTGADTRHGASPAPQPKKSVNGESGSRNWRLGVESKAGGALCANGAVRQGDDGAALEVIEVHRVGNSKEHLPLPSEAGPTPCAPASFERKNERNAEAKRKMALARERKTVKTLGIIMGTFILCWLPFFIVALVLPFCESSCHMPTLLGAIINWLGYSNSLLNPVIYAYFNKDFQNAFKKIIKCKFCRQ

[4] = biological target: T1, cAMP and cAMP-inhibited cGMP 3',5'-cyclic phosphodiesterase 10A; assay: Inhibition of PDE10A (unknown origin) at 10 uM preincubated for 20 mins followed by substrate addition and measured after 1 hr by PEDlight AMP detection reagent based luminescence assay relative to control; details: time 80.0 min
[5] = Aqueous solubility of compound in PBS buffer at pH 7.4 by UV absorbance based analysis; type: physicochemical
Rattus norvegicus = assay: Pro-cognitive activity in MK-801-induced memory impaired Wistar rat assessed as recognition of novel location by measuring discrimination index at 1 mg/kg, ip preincubated for 30 mins followed by MK-801 addition for 30 mins prior to T1 phase by novel object location test; type: functional, organism-based; details: time 60.0 min
Mus musculus [6] = assay: Antidepressant activity in Swiss albino mouse assessed as reduction in immobility time at 5 mg/kg, ip measured for last 4 mins of 6 mins test by forced swim test; type: functional, organism-based
Mus musculus [7] = assay: Anxiolytic-like activity in Swiss albino mouse at 2.5 mg/kg, ip by four plate test; type: functional, organism-based

5-hydroxytryptamine receptor 7, sequence (P34969 whole entry): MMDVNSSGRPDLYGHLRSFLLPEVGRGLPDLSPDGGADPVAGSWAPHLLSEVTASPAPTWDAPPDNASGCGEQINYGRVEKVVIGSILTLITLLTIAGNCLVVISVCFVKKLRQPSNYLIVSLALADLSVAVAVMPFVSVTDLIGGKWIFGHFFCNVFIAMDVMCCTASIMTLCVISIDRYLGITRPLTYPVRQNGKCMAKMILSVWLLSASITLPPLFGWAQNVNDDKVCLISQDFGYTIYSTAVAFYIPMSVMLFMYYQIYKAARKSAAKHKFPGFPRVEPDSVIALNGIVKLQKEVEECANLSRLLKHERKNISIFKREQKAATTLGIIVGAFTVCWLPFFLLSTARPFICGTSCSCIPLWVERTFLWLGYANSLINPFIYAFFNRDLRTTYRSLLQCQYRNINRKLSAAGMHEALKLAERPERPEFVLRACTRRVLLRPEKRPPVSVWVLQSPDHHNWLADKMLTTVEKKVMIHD

COc1cc2ncnc(N3CCN(Cc4cnc5ccccc5n4)CC3)c2cc1OC
Ki [1]: > 1000 nM
IC50 [2]: 170000 nM
Ki [3]: > 1000 nM
inhibition [4]: 29%

COCCc1ccc(OCC(O)CNC(C)C)cc1 (stereo unspecified) [METOPROLOL]
solubility [5]: 200 µM (≈ 53.5 µg/mL)

O=c1[nH]c2cccc(N3CCN(Cc4cnc5ccccc5n4)CC3)c2[nH]1
Ki [1]: > 1000 nM
Ki [3]: 83.2 nM
inhibition [4]: 9%

CSc1ccc2c(c1)CC(N1CCN(C)CC1)c1ccccc1S2 (stereo unspecified)
Ki [1]: 1.12 nM

O=c1[nH]c2cccc(N3CCN(Cc4ccc5ccccc5n4)CC3)c2[nH]1
Ki [1]: 417 nM
Ki [3]: 245 nM
inhibition [4]: 17%

COc1cc2ncnc(N3CCN(Cc4nc5ccccc5[nH]4)CC3)c2cc1OC
Ki [1]: > 1000 nM
Ki [3]: > 1000 nM
inhibition [4]: 3%

c1cc(N2CCN(Cc3nc4ccccc4[nH]3)CC2)c2[nH]ncc2c1
Ki [1]: > 1000 nM
Ki [3]: > 1000 nM

COc1cc2ncnc(N3CCC(CN4CCN(c5ccccn5)CC4)C3)c2cc1OC (stereo unspecified)
Ki [1]: 282 nM
Ki [3]: 8.13 nM
inhibition [4]: 11%

COc1cc2ncnc(N3CCC(CN4CCN(c5ccccc5)CC4)C3)c2cc1OC (stereo unspecified)
Activity (Rattus norvegicus): Active
Activity (Mus musculus [6]): Active
Ki [1]: 251 nM
Activity (Mus musculus [7]): Active
Ki [3]: 32.4 nM
inhibition [4]: 3%

c1ccc2nc(CN3CCN(c4cccc5cn[nH]c45)CC3)ccc2c1
Ki [1]: > 1000 nM
Ki [3]: > 1000 nM

COc1cc2ncnc(N3CCC(CN4CCN(c5ccccc5OC)CC4)C3)c2cc1OC (stereo unspecified)
Ki [1]: 56.2 nM
Ki [3]: 1.62 nM
inhibition [4]: 16%

c1cc(N2CCN(Cc3cnc4ccccc4n3)CC2)c2[nH]ncc2c1
Ki [1]: > 1000 nM
Ki [3]: 87.1 nM

COc1cc2ncnc(N3CCN(Cc4ccc5ccccc5n4)CC3)c2cc1OC
Ki [1]: > 1000 nM
Ki [3]: > 1000 nM
inhibition [4]: 8%
